Key:
[1] = tested on: conscious spontaneously hypertensive rats (SHR); test: Antihypertensive Activity in Rats (conscious spontaneously hypertensive rats, SHR); format: in vivo, rat; conditions: for Change in blood pressure (mean change in mean blood pressure): male SHR, placebo -5
Excerpt: The ability of the compounds of the present invention to lower blood pressure can be assessed in conscious spontaneously hypertensive rats (SHR). SHR (males) are purchased from Taconic Farms, Germantown, N.Y. and are approximately 16-17 weeks old when used to test the pharmacological effects. Rats, under ether anesthesia, receive a polyethylene tubing (PE50 fused to PE10) inserted via the caudal artery into the abdominal aorta to just below the renal arteries. This catheter is connected to a Spectromed pressure transducer and the direct arterial blood pressure is continuously recorded on an oscillographic recorder. Heart rate is determined via manual count of the pressure waves at a fast paper trace. […] If drugs are administered orally, compounds are suspended in 0.4% aqueous methylcellulose and delivered via oral gavage with an oral feeding needle. Rats are fasted overnight prior to intravenous or oral tests. All incisions are closed and the rats are placed into plexiglass restrainers where they quickly regain consciousness. At least 90 minutes are allowed for the rats to fully regain consciousness and achieve stable blood pressures and heart rates.
Intravenously administered drugs are usually given as a rapid bolus. […] In some cases drugs are given by constant intravenous infusion. The 0.4% aqueous methylcellulose is used as a placebo treatment for compounds given orally. Values are presented as the mean changes in mean blood pressure (MBP) in millimeters of mercury (mm Hg). Drug induced changes are compared with the changes in an appropriate placebo group. The compound is administered intravenously at a dosage of 1.0 to 5.0 milligrams per kilogram (mpk) body weight. The following results are representative for 1-((7-bromo-9H-fluoren-2-yl)sulfonyl)hexahydro-1H-1,4-diazepine from examples 4 and 27 (Compound A): […]

[2] = target: T1, myosin light chain kinase (MLCK) (Gallus gallus, UniProt P11799); test: Calcium-Calmodulin Independent Myosin Light Chain Kinase (MLCK) Assay; format: biochemical, chicken; conditions: for IC50: calmodulin-independent MLCK (trypsin digested, chicken gizzard), peptide KKRPQRATSNVFS-NH2 50 μM, 100 uM ATP, pH 7.2; for inhibition at 100 µM: 100 μM compound, calmodulin-independent MLCK, printed in the IC50 (μM) column, read-out: percent inhibition at a dosage of 100 μM
T1 construct: Calmodulin-independent myosin light chain kinase(CIM) of greater than 95 percent homogeneity is prepared by trypsin digestion of calmodulin-dependent MLCK; from tissue; host or cells: chicken gizzard (purified from tissue, then digested with TPCK-treated trypsin)
T1 sequence (P11799 1217-1713 limits assumed): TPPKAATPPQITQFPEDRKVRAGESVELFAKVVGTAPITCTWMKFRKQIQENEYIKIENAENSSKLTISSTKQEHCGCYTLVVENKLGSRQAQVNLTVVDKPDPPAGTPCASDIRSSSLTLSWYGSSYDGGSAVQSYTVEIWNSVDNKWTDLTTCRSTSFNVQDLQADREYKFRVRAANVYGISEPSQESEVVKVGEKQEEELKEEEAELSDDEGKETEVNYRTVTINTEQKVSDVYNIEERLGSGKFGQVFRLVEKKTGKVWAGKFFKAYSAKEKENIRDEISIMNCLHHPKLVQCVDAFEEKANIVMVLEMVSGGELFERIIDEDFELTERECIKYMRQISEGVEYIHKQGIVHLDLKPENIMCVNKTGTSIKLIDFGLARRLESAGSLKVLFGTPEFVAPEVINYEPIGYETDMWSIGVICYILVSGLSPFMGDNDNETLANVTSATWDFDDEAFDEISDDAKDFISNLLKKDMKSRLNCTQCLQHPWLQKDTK
Method: A. Enzyme Preparation. Calmodulin-independent myosin light chain kinase(CIM) of greater than 95 percent homogeneity is prepared by trypsin digestion of calmodulin-dependent MLCK which is prepared from chicken gizzard by the method of Ngai, P. J., Carruthers, C. A. and Walsh, M. P. (1984), Biochem. J. 218, pages 863-870, through the step employing diethylaminoethyl(DEAE)-Sephacel®, trademark of Pharmacia Fine Chemicals, Inc., New Market, N.J. 08854. The kinase solution containing 8.5 mg protein is adjusted to 0.5 mg/ml in 20 mM Tris/HCl, pH 7.5, 2 mM EGTA. An aliquot of 1 mg/ml of N-tosyl-L-phenylalanine-chloromethyl ketone (TPCK) treated trypsin is added to a final trypsin:MLCK ratio of 1:7.5 (mg/mg protein). Typically, the reaction is incubated for 6 minutes at 25° C.
MLCK is assayed using the synthetic peptide substrate KKRPQRATSNVFS-NH2, a thirteen amino acid fragment with a sequence corresponding to residues 11-23 of gizzard light chain except for a carboxy-terminal serine-NH2 as described in Kemp, G. E., Pearson, R. B. and House, C. (1983) Proc. Nat. Acad. Sci. U.S.A. 80, pages 7471-7475. The standard assay is performed in a total volume of 100 microliters (μl) containing 20 mM Tris-HCl, pH 7.2, 10 mM MgCl2, 100 uM [γ-^32 P] ATP with a specific activity of 300-1000 counts per minute (cpm) per picomole (pmol), 50 μM KKRPQRATSNVFS-NH2, 0.02 μg enzyme. Calmodulin was added at the concentrations indicated in the text and tables, and assays contained 1 mM EGTA or 1 mM EGTA plus approximately 200 μM excess free calcium when calcium-dependent activity was measured. Calcium-independent activity is negligible in the calcium dependent gizzard enzyme. Assays are initiated by addition of adenosine triphosphate (ATP) and stopped by addition of 200 μM HCl. Phosphate incorporated into the basic substrate is measured by spotting an aliquot on phosphocellulose filter paper, washing and counting the papers. The results are given in IC50 values. An IC50 indicates the dosage of compound in micromoles (μM) which inhibits MLCK by 50 percent. […] Results given in percentages (%) indicates the percent inhibition at a dosage of 100 μM.

Row | IC50 [2] [µM] | Compound | further results
1 | 76 | O=S(=O)(c1ccc2c(c1)Cc1cc(Br)ccc1-2)N1CCCNCC1 [Compound A, 1-((7-bromo-9H-fluoren-2-yl)sulfonyl)hexahydro-1H-1,4-diazepine] | Change in blood pressure (mean change in mean blood pressure) ([1]; intravenous, 1.0 mpk): -13 mm Hg; reduction in blood pressure upon intravenous administration ([1]; intravenous, 1.0 to 5.0 mpk, SHR): dose-dependent reduction in blood pressure; Change in blood pressure (mean change in mean blood pressure) ([1]; intravenous, 2.5 mpk): -25 mm Hg; magnitude of the effect at the highest dose compared with the placebo ([1]; intravenous, 5.0 mpk, SHR, compared with placebo): marked reduction; Change in blood pressure (mean change in mean blood pressure) ([1]; intravenous, 5.0 mpk): -30 mm Hg; activity upon oral administration ([1]; oral, 50 mpk, SHR): does not show activity
2 | 17 | O=S(=O)(c1cccc2cc3ccccc3cc12)N1CCCNCC1 [Example 16] | –
3 | 50 | O=S(=O)(c1ccc2cc3ccccc3cc2c1)N1CCCNCC1 [Example 17] | –
4 | 32 | O=S(=O)(c1ccc2ncc3ccccc3c2c1)N1CCCNCC1 [Example 22] | –
5 | 65 | O=S(=O)(c1ccc2c(cnc3ccccc32)c1)N1CCCNCC1 [Example 23] | –

More lines, now with the values behind:

Row | Compound | IC50 [2] [µM] | further results
6 | O=S(=O)(c1cc2ccccc2c2ccccc12)N1CCCNCC1 [Example 18] | 4.8 | –
7 | O=S(=O)(c1ccc2c(ccc3ccccc32)c1)N1CCCNCC1 [Example 19] | 11 | –
8 | O=S(=O)(c1ccc2c(Br)cc3ccccc3c2c1)N1CCCNCC1 [Example 20] | 10 | –
9 | O=S(=O)(c1cccc2nc3ccccc3cc12)N1CCCNCC1 [Example 21] | 100 | –
10 | O=S(=O)(c1cccc2c1cnc1ccccc12)N1CCCNCC1 [Example 24] | 35 | –
11 | O=S(=O)(c1c2ccccc2cc2ccccc12)N1CCCNCC1 [Example 25] | 5 | –
12 | O=S(=O)(c1cc2ccccc2c2ccccc12)N1CCCNCC1 [Example 26] | 3.5 | –
13 | N=C(N)N1CCCN(S(=O)(=O)c2ccc3c(c2)Cc2cc(Br)ccc2-3)CC1 [Example 28] | – | inhibition at 100 µM [2]: 55%
14 | CC1(C)c2cc(Br)ccc2-c2ccc(S(=O)(=O)N3CCCNCC3)cc21 [Example 29] | – | inhibition at 100 µM [2]: 40%

Reference: patent publication US5030631A, “Tricylclic arylsulfonamides” (Schering Corporation, priority 1989, dated 1991)
